According to ChEMBL document CHEMBL4261554, “Bioisosteric replacement of central 1,2,4-oxadiazole ring of high affinity CB2 ligands by regioisomeric 1,3,4-oxadiazole ring” (Medchemcomm, 2017):

Legend:
Cannabinoid receptor 1 [1] = biological target: T1, Cannabinoid receptor 1 (Homo sapiens, UniProt P21554); assay: biochemical
Cannabinoid receptor 2 [2] = biological target: T2, Cannabinoid receptor 2 (Homo sapiens, UniProt P34972); assay: Displacement of [3H]CP55940 from beta-galactosidase reporter fused human CB2 receptor expressed in CHOK1 cell membranes at 1 uM after 1 hr by scintillation spectrometric analysis
T2 sequence (P34972 whole entry, the tested form may be a part): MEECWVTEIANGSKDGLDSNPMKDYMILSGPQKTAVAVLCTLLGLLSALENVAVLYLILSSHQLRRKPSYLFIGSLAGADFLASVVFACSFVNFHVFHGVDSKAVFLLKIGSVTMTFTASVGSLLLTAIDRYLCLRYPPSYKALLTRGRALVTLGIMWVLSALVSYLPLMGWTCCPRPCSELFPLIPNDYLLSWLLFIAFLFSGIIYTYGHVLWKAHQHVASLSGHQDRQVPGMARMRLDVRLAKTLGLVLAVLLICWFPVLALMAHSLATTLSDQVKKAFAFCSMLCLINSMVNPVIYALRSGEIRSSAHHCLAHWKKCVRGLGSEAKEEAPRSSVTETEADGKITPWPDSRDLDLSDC

Cannabinoid receptor 1 [3] = biological target: T1, Cannabinoid receptor 1; assay: Displacement of [3H]CP55940 from beta-galactosidase reporter fused human CB1 receptor expressed in CHOK1 cell membranes at 1 uM after 1 hr by scintillation spectrometric analysis relative to control
Cannabinoid receptor 2 [4] = biological target: T2, Cannabinoid receptor 2; assay: Displacement of [3H]CP55940 from beta-galactosidase reporter fused human CB2 receptor expressed in CHOK1 cell membranes after 1 hr by scintillation spectrometric analysis

T1 sequence (P21554 whole entry, the tested form may be a part): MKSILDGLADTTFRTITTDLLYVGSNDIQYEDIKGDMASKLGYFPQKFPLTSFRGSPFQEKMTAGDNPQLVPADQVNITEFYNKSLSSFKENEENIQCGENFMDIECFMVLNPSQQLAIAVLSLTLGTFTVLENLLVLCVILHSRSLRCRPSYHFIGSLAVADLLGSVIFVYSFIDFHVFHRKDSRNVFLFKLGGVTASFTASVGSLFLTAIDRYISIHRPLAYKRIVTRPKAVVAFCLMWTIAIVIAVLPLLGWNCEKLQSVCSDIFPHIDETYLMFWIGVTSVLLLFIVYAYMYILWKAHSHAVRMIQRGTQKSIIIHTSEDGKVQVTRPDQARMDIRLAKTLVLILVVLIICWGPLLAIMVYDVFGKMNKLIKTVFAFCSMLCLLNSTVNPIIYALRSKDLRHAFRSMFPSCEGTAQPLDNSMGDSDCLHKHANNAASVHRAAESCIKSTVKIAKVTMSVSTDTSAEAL

SMILES	Ki (Cannabinoid receptor 1 [1])	inhibition (Cannabinoid receptor 2 [2])	inhibition (Cannabinoid receptor 1 [3])	Ki (Cannabinoid receptor 2 [4])
CCCCCCC(C)(C)c1cc(O)c2c(c1)OC(C)(C)[C@@H]1CC=C(CO)C[C@@H]21	9.55 nM			
N#Cc1cc(F)ccc1-c1nnc(CCC(=O)Nc2ccc3c(c2)c2ccccc2n3CCO)o1		< 50%		
O=C(CCc1nnc(-c2ccc(Br)cc2F)o1)Nc1ccc2c(c1)c1ccccc1n2CCF		> 50%	-8%	318 nM
N#Cc1cc(F)ccc1-c1noc(CCC(=O)Nc2ccc3c(c2)c2ccccc2n3CCF)n1			-8%	
N#Cc1cc(F)ccc1-c1nnc(CCC(=O)Nc2ccc3c(c2)c2ccccc2n3CCF)o1		> 50%	-1%	219 nM
O=C(CCc1nnc(-c2ccc(F)cc2Br)o1)Nc1ccc2c(c1)c1ccccc1n2CCF		> 50%	22%	25 nM
O=C(CCc1nc(-c2ccc(Br)cc2F)no1)Nc1ccc2c(c1)c1ccccc1n2CCF			-5%	
O=C(CCc1nnc(-c2ccc(F)cc2Br)o1)Nc1ccc2c(c1)c1ccccc1n2CCO		< 50%		
O=C(CCc1nnc(-c2ccc(Br)cc2F)o1)Nc1ccc2c(c1)c1ccccc1n2CCO		< 50%		
